The source of these data is the NIST ThermoML archive (doi:10.1016/j.jct.2017.11.017).

This data set is described as follows: activity coefficient (dimensionless); of the first substance listed, at infinite dilution; xn = mol fraction of the nth substance listed. The settings on record: 101.33 kPa, Liquid, Chromatography, x1 = 0.

Numbers after ± are expanded uncertainties.

As for `C#CCCC` [1-pentyne] + C[n+]1ccn(CCCO)c1.N#CN=C=[N-], the activity coefficient was found to be 11.3 ± 0.8 (298.15 K); 11.5 ± 0.8 (308.15 K); 11.7 ± 0.8 (318.15 K); 11.8 ± 0.8 (328.15 K); 12 ± 0.8 (338.15 K); 12.1 ± 0.8 (348.15 K). Further, the activity coefficient (358.15 K) amounted to 12.3 ± 0.8.

With `CC(C)CC(C)(C)C` [2,2,4-trimethylpentane] + C[n+]1ccn(CCCO)c1.N#CN=C=[N-], the activity coefficient runs as follows: (298.15 K) 767 ± 53; (308.15 K) 662 ± 46; (318.15 K) 579 ± 40; (328.15 K) 509 ± 35.

For the compound `CCOC(C)(C)C` [2-ethoxy-2-methylpropane] + C[N+]1(CCCO)CCOCC1.N#C[N-]C#N, the activity coefficient by setting is: (298.15 K) 339 ± 23; (308.15 K) 275 ± 19; (318.15 K) 227 ± 16; (328.15 K) 191 ± 13.

Regarding `CCOC(C)(C)C` [2-ethoxy-2-methylpropane] + C[n+]1ccn(CCCO)c1.N#CN=C=[N-], the activity coefficient was found to be 78.5 ± 5.4 (318.15 K); 76.2 ± 5.2 (328.15 K); 74.5 ± 5.1 (338.15 K); 73.1 ± 5 (348.15 K); 72.1 ± 4.9 (358.15 K); 70.5 ± 4.8 (368.15 K).

`CCC(C)(C)OC` [2-methoxy-2-methylbutane] + C[N+]1(CCCO)CCOCC1.N#C[N-]C#N: the activity coefficient (308.15 K) was 97.2 ± 6.7; the activity coefficient (318.15 K) was determined as 90.2 ± 6.2; the activity coefficient (328.15 K) was determined as 84.1 ± 5.8; the activity coefficient (338.15 K) stood at 78.6 ± 5.4; the activity coefficient (348.15 K) is 74 ± 5.1; the activity coefficient (358.15 K) is 69.9 ± 4.8. Further, the activity coefficient (368.15 K) is 66 ± 5.

Consider `CCC(C)(C)OC` [2-methoxy-2-methylbutane] + C[n+]1ccn(CCCO)c1.N#CN=C=[N-], for which the activity coefficient reads like this: (318.15 K) 36.8 ± 2.5; (328.15 K) 37 ± 2.5; (338.15 K) 37.2 ± 2.5; (348.15 K) 37.5 ± 2.6; (358.15 K) 37.7 ± 2.6; (368.15 K) 38.1 ± 2.6.

Consider `COC(C)(C)C` [2-methoxy-2-methylpropane] + C[N+]1(CCCO)CCOCC1.N#C[N-]C#N, for which the activity coefficient stood at 55.8 ± 3.8 (308.15 K); 52.4 ± 3.6 (318.15 K); 49.7 ± 3.4 (328.15 K); 47.1 ± 3.2 (338.15 K); 45 ± 3.1 (348.15 K); 42.9 ± 2.9 (358.15 K). Moreover, the activity coefficient (368.15 K) worked out at 41.3 ± 2.8.

Turning to `COC(C)(C)C` [2-methoxy-2-methylpropane] + C[n+]1ccn(CCCO)c1.N#CN=C=[N-], the activity coefficient reads like this: (318.15 K) 22.8 ± 1.6; (328.15 K) 23.2 ± 1.6; (338.15 K) 23.5 ± 1.6; (348.15 K) 24 ± 1.6; (358.15 K) 24.3 ± 1.7; (368.15 K) 24.7 ± 1.7.

For the compound `CC(C)CO` [2-methyl-1-propanol] + C[N+]1(CCCO)CCOCC1.N#C[N-]C#N, the activity coefficient stood at 4.72 ± 0.32 (318.15 K); 4.54 ± 0.31 (328.15 K); 4.38 ± 0.3 (338.15 K); 4.25 ± 0.29 (348.15 K); 4.12 ± 0.28 (358.15 K); 4 ± 0.27 (368.15 K).

Turning to `CC(C)CO` [2-methyl-1-propanol] + C[n+]1ccn(CCCO)c1.N#CN=C=[N-], the activity coefficient (318.15 K) was determined as 2.79 ± 0.19; the activity coefficient (328.15 K) stood at 2.72 ± 0.19; the activity coefficient (338.15 K) came out at 2.68 ± 0.18; the activity coefficient (348.15 K) turned out to be 2.64 ± 0.18; the activity coefficient (358.15 K) was 2.6 ± 0.18; the activity coefficient (368.15 K) amounted to 2.58 ± 0.18.

As for `CC(C)(C)O` [2-methylpropan-2-ol] + C[N+]1(CCCO)CCOCC1.N#C[N-]C#N, the activity coefficient is 4.35 ± 0.3 (318.15 K); 4.27 ± 0.29 (328.15 K); 4.21 ± 0.29 (338.15 K); 4.17 ± 0.28 (348.15 K); 4.14 ± 0.28 (358.15 K); 4.09 ± 0.28 (368.15 K).

`CC(C)(C)O` [2-methylpropan-2-ol] + C[n+]1ccn(CCCO)c1.N#CN=C=[N-]: the activity coefficient came to 2.58 ± 0.18 (318.15 K); 2.63 ± 0.18 (328.15 K); 2.68 ± 0.18 (338.15 K); 2.71 ± 0.18 (348.15 K); 2.74 ± 0.19 (358.15 K); 2.79 ± 0.19 (368.15 K).

As to `CCC(C)CC` [3-methylpentane] + C[n+]1ccn(CCCO)c1.N#CN=C=[N-], the activity coefficient runs as follows: (298.15 K) 327 ± 22; (308.15 K) 284 ± 20; (318.15 K) 249 ± 17; (328.15 K) 221 ± 15.

`C=C(C)c1ccccc1` [(1-methylethenyl)benzene] + C[N+]1(CCCO)CCOCC1.N#C[N-]C#N: the activity coefficient by setting is: (318.15 K) 18.1 ± 1.2; (328.15 K) 18.9 ± 1.3; (338.15 K) 19.5 ± 1.3; (348.15 K) 20.1 ± 1.4; (358.15 K) 20.7 ± 1.4; (368.15 K) 21.3 ± 1.5.

For the compound `C=C(C)c1ccccc1` [(1-methylethenyl)benzene] + C[n+]1ccn(CCCO)c1.N#CN=C=[N-], the activity coefficient is 10.2 ± 0.7 (318.15 K); 10.9 ± 0.7 (328.15 K); 11.5 ± 0.8 (338.15 K); 12.1 ± 0.8 (348.15 K); 12.7 ± 0.9 (358.15 K); 13.3 ± 0.9 (368.15 K).

On to `CC(C)=O` [acetone] + C[N+]1(CCCO)CCOCC1.N#C[N-]C#N, for which the activity coefficient by setting is: (318.15 K) 2.24 ± 0.15; (328.15 K) 2.3 ± 0.16; (338.15 K) 2.37 ± 0.16; (348.15 K) 2.45 ± 0.17; (358.15 K) 2.51 ± 0.17; (368.15 K) 2.59 ± 0.18.

As to `CC(C)=O` [acetone] + C[n+]1ccn(CCCO)c1.N#CN=C=[N-], the activity coefficient is, setting by setting: (318.15 K) 1.76 ± 0.12; (328.15 K) 1.83 ± 0.12; (338.15 K) 1.92 ± 0.13; (348.15 K) 2 ± 0.14; (358.15 K) 2.09 ± 0.14; (368.15 K) 2.19 ± 0.15.

`CC#N` [acetonitrile] + C[N+]1(CCCO)CCOCC1.N#C[N-]C#N: the activity coefficient is, setting by setting: (318.15 K) 1.25 ± 0.08; (328.15 K) 1.29 ± 0.08; (338.15 K) 1.33 ± 0.09; (348.15 K) 1.37 ± 0.09; (358.15 K) 1.4 ± 0.09; (368.15 K) 1.45 ± 0.1.

Turning to `CC#N` [acetonitrile] + C[n+]1ccn(CCCO)c1.N#CN=C=[N-], the activity coefficient is, setting by setting: (318.15 K) 1.19 ± 0.08; (328.15 K) 1.23 ± 0.08; (338.15 K) 1.29 ± 0.08; (348.15 K) 1.33 ± 0.09; (358.15 K) 1.37 ± 0.09; (368.15 K) 1.41 ± 0.09.

`c1ccccc1` [benzene] + C[N+]1(CCCO)CCOCC1.N#C[N-]C#N: the activity coefficient (318.15 K) amounted to 6.97 ± 0.48; the activity coefficient (328.15 K) was 7.09 ± 0.48; the activity coefficient (338.15 K) was 7.2 ± 0.49; the activity coefficient (348.15 K) turned out to be 7.33 ± 0.5; the activity coefficient (358.15 K) came to 7.41 ± 0.51; the activity coefficient (368.15 K) was 7.57 ± 0.52.

`c1ccccc1` [benzene] + C[n+]1ccn(CCCO)c1.N#CN=C=[N-]: the activity coefficient worked out at 4.41 ± 0.3 (318.15 K); 4.56 ± 0.31 (328.15 K); 4.74 ± 0.32 (338.15 K); 4.92 ± 0.34 (348.15 K); 5.08 ± 0.35 (358.15 K); 5.22 ± 0.36 (368.15 K).

Take `CCCCO` [butan-1-ol] + C[N+]1(CCCO)CCOCC1.N#C[N-]C#N: the activity coefficient stood at 4.66 ± 0.32 (318.15 K); 4.5 ± 0.31 (328.15 K); 4.39 ± 0.3 (338.15 K); 4.26 ± 0.29 (348.15 K); 4.17 ± 0.28 (358.15 K); 4.08 ± 0.28 (368.15 K).

For the compound `CCCCO` [butan-1-ol] + C[n+]1ccn(CCCO)c1.N#CN=C=[N-], the activity coefficient runs as follows: (318.15 K) 2.8 ± 0.19; (328.15 K) 2.75 ± 0.19; (338.15 K) 2.73 ± 0.19; (348.15 K) 2.7 ± 0.18; (358.15 K) 2.69 ± 0.18; (368.15 K) 2.68 ± 0.18.

Regarding `CCC(C)O` (stereo unspecified) [butan-2-ol] + C[N+]1(CCCO)CCOCC1.N#C[N-]C#N, the activity coefficient was 4.46 ± 0.3 (318.15 K); 4.35 ± 0.3 (328.15 K); 4.27 ± 0.29 (338.15 K); 4.2 ± 0.29 (348.15 K); 4.15 ± 0.28 (358.15 K); 4.09 ± 0.28 (368.15 K).
